ChEMBL document CHEMBL4020810, “Janus-Associated Kinase 1 (JAK1) Inhibitors as Potential Treatment for Immune Disorders” (ACS Med Chem Lett, 2017)
Values belong to the compound of their own block, whether it stands above or below them.

Key:
[1] = target: T1, Tyrosine-protein kinase JAK1 (Homo sapiens, UniProt P23458); assay: Inhibition of JAK1 in human NCI-H1975 cells assessed as reduction in STAT3 phosphorylation incubated for 2 hrs; assay type: cell-based
[2] = target: T2, Tyrosine-protein kinase JAK3 (Homo sapiens, UniProt P52333); assay: Inhibition of N-terminal GST fused recombinant JAK3 (781 to 1124 amino acids) (unknown origin) expressed in insect cells using ATP and peptide substrate (5FAM-GEEPLYWSFPAKKK-NH2
T2 sequence (P52333 whole entry): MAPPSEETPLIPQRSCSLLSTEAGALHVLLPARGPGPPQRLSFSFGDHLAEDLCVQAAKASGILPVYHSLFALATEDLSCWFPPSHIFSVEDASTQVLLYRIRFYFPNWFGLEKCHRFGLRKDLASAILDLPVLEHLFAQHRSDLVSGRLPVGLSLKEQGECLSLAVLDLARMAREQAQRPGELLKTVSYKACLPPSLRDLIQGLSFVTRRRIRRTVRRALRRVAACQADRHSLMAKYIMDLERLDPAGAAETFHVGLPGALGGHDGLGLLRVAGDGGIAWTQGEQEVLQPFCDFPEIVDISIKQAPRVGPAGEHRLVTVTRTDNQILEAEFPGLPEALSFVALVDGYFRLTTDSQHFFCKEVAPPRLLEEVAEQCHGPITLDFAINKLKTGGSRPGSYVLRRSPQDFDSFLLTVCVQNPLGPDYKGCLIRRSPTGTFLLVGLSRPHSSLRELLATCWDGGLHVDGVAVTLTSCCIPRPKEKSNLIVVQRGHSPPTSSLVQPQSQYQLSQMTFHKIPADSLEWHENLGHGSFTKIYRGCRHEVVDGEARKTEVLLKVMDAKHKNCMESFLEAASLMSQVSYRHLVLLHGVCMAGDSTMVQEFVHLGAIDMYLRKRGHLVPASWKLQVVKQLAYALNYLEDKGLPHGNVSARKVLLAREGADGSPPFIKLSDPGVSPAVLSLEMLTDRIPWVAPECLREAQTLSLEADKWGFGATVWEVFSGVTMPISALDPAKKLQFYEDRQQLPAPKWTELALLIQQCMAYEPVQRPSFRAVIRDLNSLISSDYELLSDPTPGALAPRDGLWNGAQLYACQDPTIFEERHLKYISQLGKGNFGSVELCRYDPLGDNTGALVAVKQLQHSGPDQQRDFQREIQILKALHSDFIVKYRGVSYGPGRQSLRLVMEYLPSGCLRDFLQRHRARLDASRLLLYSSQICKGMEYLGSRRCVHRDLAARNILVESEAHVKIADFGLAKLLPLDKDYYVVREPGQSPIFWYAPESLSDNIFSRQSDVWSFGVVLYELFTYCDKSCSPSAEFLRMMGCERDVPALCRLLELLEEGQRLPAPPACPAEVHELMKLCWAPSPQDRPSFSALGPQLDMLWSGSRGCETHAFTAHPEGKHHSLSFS

[3] = target: T1, Tyrosine-protein kinase JAK1; assay: Inhibition of N-terminal GST fused human recombinant JAK1 (866 to 1154 amino acids) expressed in insect cells using ATP and peptide substrate (FITC-C6-KKHTDDGYMPMSPGVA-NH2

T1 sequence (P23458 whole entry, the tested form may be a part): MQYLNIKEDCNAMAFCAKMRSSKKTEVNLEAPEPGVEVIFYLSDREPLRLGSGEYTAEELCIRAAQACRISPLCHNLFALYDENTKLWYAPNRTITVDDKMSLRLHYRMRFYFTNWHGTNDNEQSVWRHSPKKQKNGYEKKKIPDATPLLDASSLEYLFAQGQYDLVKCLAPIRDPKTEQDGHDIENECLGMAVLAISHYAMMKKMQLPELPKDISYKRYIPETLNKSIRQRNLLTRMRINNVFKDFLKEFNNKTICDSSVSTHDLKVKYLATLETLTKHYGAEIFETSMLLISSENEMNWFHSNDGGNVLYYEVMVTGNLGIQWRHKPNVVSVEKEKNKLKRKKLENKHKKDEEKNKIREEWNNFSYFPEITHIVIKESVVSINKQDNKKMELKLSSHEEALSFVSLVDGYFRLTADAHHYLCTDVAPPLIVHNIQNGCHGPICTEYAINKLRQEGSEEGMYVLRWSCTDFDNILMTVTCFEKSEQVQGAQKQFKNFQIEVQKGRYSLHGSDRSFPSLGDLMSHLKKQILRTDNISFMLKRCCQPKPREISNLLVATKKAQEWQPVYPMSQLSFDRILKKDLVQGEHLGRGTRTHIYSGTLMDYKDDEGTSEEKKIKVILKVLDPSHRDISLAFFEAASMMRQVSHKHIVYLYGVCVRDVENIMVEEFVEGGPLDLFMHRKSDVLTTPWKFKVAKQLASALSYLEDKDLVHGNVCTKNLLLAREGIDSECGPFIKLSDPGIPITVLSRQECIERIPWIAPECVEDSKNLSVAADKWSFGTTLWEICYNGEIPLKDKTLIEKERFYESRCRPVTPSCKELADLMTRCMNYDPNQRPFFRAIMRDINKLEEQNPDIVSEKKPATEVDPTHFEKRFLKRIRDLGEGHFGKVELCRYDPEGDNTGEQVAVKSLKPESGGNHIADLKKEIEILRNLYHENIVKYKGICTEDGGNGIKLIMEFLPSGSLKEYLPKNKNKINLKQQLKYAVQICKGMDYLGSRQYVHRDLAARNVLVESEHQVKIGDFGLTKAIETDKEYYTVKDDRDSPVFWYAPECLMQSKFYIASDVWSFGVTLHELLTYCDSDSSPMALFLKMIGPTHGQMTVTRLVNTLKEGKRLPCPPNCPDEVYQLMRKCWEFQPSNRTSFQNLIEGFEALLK

Compound: CCOc1nn(C)cc1Nc1ncc(F)c(-c2c[nH]c3c(NC(=O)[C@H](C)N4CCN(C)C[C@@H]4C)cccc23)n1
IC50 [1]: > 3000 nM

Compound: COc1nn(C)cc1Nc1nccc(-c2c[nH]c3c(NC(=O)[C@@H](C)N4CCN(C)C[C@@H]4C)cccc23)n1
IC50 [1]: 643 nM

Compound: CCOc1nn(C)cc1Nc1ncc(C)c(-c2c[nH]c3c(NC(=O)[C@@H](CC)N4CCN(C)CC4)cccc23)n1
IC50 [1]: 104 nM
IC50 [2]: > 30000 nM
IC50 [3]: < 6 nM

Compounds with a lower IC50 [1], results first:

IC50 [1]: 56.6 nM
IC50 [2]: > 30000 nM
IC50 [3]: < 3 nM
Compound: COC[C@H](C(=O)Nc1cccc2c(-c3nc(Nc4cn(C)nc4C)ncc3F)c[nH]c12)N1CCN(C)CC1

IC50 [1]: 57.9 nM
Compound: COc1nn(C)cc1Nc1ncc(Cl)c(-c2c[nH]c3c(NC(=O)[C@@H](C)N4CCN(C)CC4)cccc23)n1

IC50 [1]: 75.1 nM
IC50 [2]: > 30000 nM
IC50 [3]: < 4 nM
Compound: CC[C@H](C(=O)Nc1cccc2c(-c3nc(Nc4cn(C)nc4C)ncc3F)c[nH]c12)N1CCN(C)CC1
